Where two headings read alike, the source gives them in different places.
Key:
[1] = test system: gastric secretion; assay: Inhibitory activity on gastric secretion in rats; assay type: in vivo, Wistar rats (male); conditions: Rattus norvegicus, sc, read-out: Inhibitory activity on gastric secretion, ED50
Experimental: After fasting for 48 hours, the stomach of male Wistar rats weighing about 200 g were ligated at the pylorus under light ether anesthesia as described by Shay et al. in the Gastroenterology, vol. 5, pp. 43-61 (1945). Immediately after this ligation, test compound was given subcutaneously. Four hours later, the gastric juice in the stomach was collected and centrifuged for each rat and expressed as ml per 100 g of body weight.
The ED50 was calculated in the same manner as Test (I) on Shay ulcer.

[2] = test system: gastric motility; assay: Inhibitory activity on gastric motility under stress in rats; assay type: in vivo, Wistar rats (male); conditions: Rattus norvegicus, read-out: Inhibitory activity on gastric motility, ED50
Experimental: The procedure described by K. Watanabe in the Chemical & Pharmaceutical Bulletin, vol.
Male Wistar rats weighing about 250 g were used. After fasting for 18 hours, rats were fixed on their backs by the limbs with thread on boads and immersed into water to the depth of the xiphoid cartilage. Temperature of water was kept at 22° C.
Pressure change in small rubber balloon fixed in the grandular stomach was recorded with pressure transducer (Nihon Koden Kogyo Co., Ltd., MP-4T). The balloon was inserted from the forestomach under light ether anesthesia. Initial pressure was kept at the height of 10 mmHg.
When the effect of anesthesia and of the operation diminished, test compound was administered into the stomach through the polyethylene tube which was previously inserted into the stomach with the balloon.

[3] = test system: Shay ulcer; assay: Inhibitory activity on Shay ulcer in rats; assay type: in vivo, Wistar rats (female); conditions: Rattus norvegicus, sc, read-out: Inhibitory activity on Shay ulcer, ED50
Experimental: Female Wistar rats (140-180 g) were fasted for 44 hours but allowed free access to ater after which the pylorus was ligated as described by Shay et al. in the Gastroenterology, vol. […] Immediately after this ligation, test compound was given subcutaneously. Ten hours later, the animals were sacrificed by an overdose of ether, the stomach was removed and examined for lesions. The logarithm of the sum of each damaged area per rat was referred to as the ulcer index.
The Per Cent Inhibition was calculated as follows: [formula]
The ED50 was read from the semilogarithmic graph on which the Per Cent Inhibition was plotted vs. mg/kg dose.

[4] = biological target: T1, acetylcholine (contracting action of the guinea pig intestine) (Cavia porcellus); assay: Acetylcholine antagonistic activity on contraction of guinea pig intestine; conditions: negative log10 of molar concentration reducing effect of a double dose of acetylcholine to that of a single dose, read-out: Acetylcholine antagonistic activity, pA2 (converted)
T1 construct: contracting action of the guinea pig intestine; from tissue; host or cells: guinea pig intestine
T1 sequence (H0W1Z3 1-590): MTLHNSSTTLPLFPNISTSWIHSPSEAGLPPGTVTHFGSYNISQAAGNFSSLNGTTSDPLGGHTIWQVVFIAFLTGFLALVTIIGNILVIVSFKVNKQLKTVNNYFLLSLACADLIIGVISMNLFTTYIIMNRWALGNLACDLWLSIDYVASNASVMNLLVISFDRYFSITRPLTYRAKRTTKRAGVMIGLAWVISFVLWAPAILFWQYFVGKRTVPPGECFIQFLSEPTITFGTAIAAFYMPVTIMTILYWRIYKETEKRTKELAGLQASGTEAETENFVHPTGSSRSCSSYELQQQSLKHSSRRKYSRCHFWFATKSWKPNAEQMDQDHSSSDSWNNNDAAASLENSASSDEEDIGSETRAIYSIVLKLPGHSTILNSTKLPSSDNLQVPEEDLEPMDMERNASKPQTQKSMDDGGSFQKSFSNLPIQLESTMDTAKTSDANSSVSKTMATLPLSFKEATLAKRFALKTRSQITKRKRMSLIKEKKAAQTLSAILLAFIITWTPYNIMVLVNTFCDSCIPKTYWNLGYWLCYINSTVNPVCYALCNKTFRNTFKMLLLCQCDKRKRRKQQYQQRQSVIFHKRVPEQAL
Experimental: Acetylcholine antagonistic activity was tested according to the method described by J. M. Van Rossum et al. in the Archives Internationales de Pharmacodynamie et de Therapie, vol. 143, pp. 240-246 and pp. 299-330 (1963). The pA2 is the negative of the logarithm, to the base 10, of the molar concentration of the test compound which reduced the effect of a double dose of acetylcholine on contracting action of the guinea pig intestine compared with that of a single dose.

For `CN1[C@@H]2CC[C@H]1C[C@@H](OC(=O)C(CO)c1ccccc1)C2` (stereo partly shown) [Atropine, reference compound], the ED50 ([1]; 4 h) was 0.12 mg/kg, the ED50 [2] was ≤ 3 mg/kg and the ED50 ([3]; 10 h) was 0.5 mg/kg.
In the case of `O=C(O)/C=C\C(=O)O.c1csc(Cc2ccccc2OCC2CNCCO2)c1` (stereo not shown) [Compound A, 2-[2-(2-thenyl)phenoxymethyl]morpholine maleate], the ED50 ([1]; subcutaneous, immediately after pylorus ligation, gastric juice collected 4 hours later) is reported as 4.5 mg/kg, the ED50 ([2]; administered into the stomach, stress by water immersion at 22° C) is reported as 2.1 mg/kg and the ED50 ([3]; subcutaneous, immediately after pylorus ligation, examined 10 hours later) is reported as 5.5 mg/kg. The Kb [4] was 6.31 µM.
